Test results reported in patent publication US11718612B2, “Inhibitors of receptor interacting protein kinase I for the treatment of disease” (Board of Regents, The University of Texas System, priority 2019, dated 2023).

Experiments:
RIPK1 = RIPK1 (Homo sapiens (Human), UniProt Q13546); assay: ADP-Glo kinase assay, RIPK1 activity; assay type: biochemical; conditions: 5 nM RIPK1, 50 μM ATP, 6 hr reaction
Method: In order to measure RIPK1 activity the ADP-Glo kinase assay (Promega, Catalog #V7002) was used to measure the conversion of ATP to ADP. This enzymatic assay was performed in a 384-well white, Optiplate (Perkin Elmer, Catalog #6007299) with assay buffer consisting of 50 mM HEPES pH 7.5 (Gibco, Catalog #15630-080), 50 mM NaCl (Teknova, Catalog #S0252), 30 mM MgCl2 (Ambion, Catalog #AM9530G), 1 mM DTT (Santa Cruz Biotechnology, Catalog #sc-29089), 0.05% BSA (Sigma, Catalog #A3059-50G) and 0.02% CHAPS (Sigma, Catalog #C5070-5G). Stock solutions of the test compounds were prepared in 100% DMSO (Sigma, Catalog #D2650) and serially diluted 1:3 using 100% DMSO. Compounds were additionally diluted 1:40 in assay buffer, and 2 μL/well were transferred to the assay plate. 4 μL/well (final concentration of 5 nM) of RIPK1 protein (SignalChem, Catalog #R07-11G-05) diluted in assay buffer and added to the assay plate followed by a 10 minute preincutation at room temperature. 4 μL/well of ATP (Promega, Catalog #V7002) (final concentration of 50 μM) diluted in assay buffer were then added to the assay plate followed by a 6 hr reaction time. Final concentrations of RIPK1 and ATP refer to a 10 μL volume. Luminescence was measured using a BioTek Synergy™ NEO plate reader. IC50 values were calculated using a four-parameter logistic curve fit using Genedata Screener software.

U937 cells = assay: Human U937 cellular necroptosis assay; assay type: cell-based; conditions: U-937; U937 cells stimulated with 25 ng/mL human TNFalpha and 25 μM z-VAD-FMK; 22 hr; Cell Titer-Glo viability

Sequence of RIPK1 (Q13546 1-327): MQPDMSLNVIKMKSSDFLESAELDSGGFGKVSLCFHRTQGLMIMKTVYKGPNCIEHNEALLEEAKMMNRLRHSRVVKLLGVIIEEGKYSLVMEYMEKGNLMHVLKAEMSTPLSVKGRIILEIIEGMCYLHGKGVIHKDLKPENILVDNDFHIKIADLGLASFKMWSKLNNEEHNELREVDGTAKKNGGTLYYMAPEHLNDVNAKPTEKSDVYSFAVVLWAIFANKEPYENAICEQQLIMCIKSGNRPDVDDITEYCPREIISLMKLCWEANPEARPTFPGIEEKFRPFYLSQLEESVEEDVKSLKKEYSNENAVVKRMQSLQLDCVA

Row | Structure (SMILES) | IC50 (RIPK1) [nM] | IC50 (U937 cells) [nM]
1 | O=C(Nc1cc(F)cc(F)c1F)c1n[nH]c(Cc2ccccc2)n1 [Example 23, 5-benzyl-N-(2,3,5-trifluorophenyl)-1H-1,2,4-triazole-3-carboxamide] | 2260 | > 10000
2 | N#Cc1cccc(Cn2cnc(C(=O)Nc3cccc(Cl)c3F)n2)c1 [Example 29, N-(3-chloro-2-fluorophenyl)-1-(3-cyanobenzyl)-1H-1,2,4-triazole-3-carboxamide] | 34.1 | 356
3 | O=C1c2nn(Cc3cc(F)cc(F)c3)c(Cl)c2CCN1c1cccc(Cl)c1F [Example 3, 3-Chloro-6-(3-chloro-2-fluorophenyl)-2-(3,5-difluorobenzyl)-5,6-dihydro-2H-pyrazolo[3,4-c]pyridin-7(4H)-one] | 111 | 189
4 | N#Cc1cc(Cl)c(F)c(NC(=O)c2ncn(Cc3ccccc3)n2)c1 [Example 35, 1-benzyl-N-(3-chloro-5-cyano-2-fluorophenyl)-1H-1,2,4-triazole-3-carboxamide] | 703 | 7290
5 | O=C1c2nn(Cc3cc(F)ccc3F)c(Cl)c2CCN1c1cccc(Cl)c1F [Example 50, 3-Chloro-6-(3-chloro-2-fluorophenyl)-2-(2,5-difluorobenzyl)-5,6-dihydro-2H-pyrazolo[3,4-c]pyridin-7(4H)-one] | 18.6 | 42.5
6 | COc1ccc(NC(=O)c2ncn(Cc3ccccc3)n2)c(F)c1Cl [Example 30, 1-benzyl-N-(3-chloro-2-fluoro-4-methoxy-phenyl)-1H-1,2,4-triazole-3-carboxamide] | 110 | 1490
7 | O=C(Nc1cccc(Cl)c1F)c1ncn(Cc2cnccn2)n1 [Example 32, N-(3-chloro-2-fluoro-phenyl)-1-(pyrazin-2-ylmethyl)-1H-1,2,4-triazole-3-carboxamide] | 257 | 1920
8 | N#Cc1ccc(Cn2cnc(C(=O)Nc3cccc(Cl)c3F)n2)cc1 [Example 33, N-(3-chloro-2-fluoro-phenyl)-1-(4-cyano-benzyl)-1H-1,2,4-triazole-3-carboxamide] | 389 | 5420
